In patent US9556180B2, “Pyrazolo[3,4-d]pyrimidinone compounds as inhibitors of the P53/MDM2 interaction” (Novartis AG, priority 2013, dated 2017):

Columns and labels:
Assay type in all cases: binding
[1] = target: T1, p53-MDM4 interaction (human MDM4 protein, amino acids 2-185) (Homo sapiens, UniProt O15151); assay: p53-MDM4 Assay 1: TR-FRET inhibition of p53-MDM4 interaction; settings: 2.5 nM MDM4-biotinylated, 10 nM Cy5-p53 peptide
T1 construct: human MDM4 protein (amino acids 2-185); made in house
T1 sequence (O15151 2-185): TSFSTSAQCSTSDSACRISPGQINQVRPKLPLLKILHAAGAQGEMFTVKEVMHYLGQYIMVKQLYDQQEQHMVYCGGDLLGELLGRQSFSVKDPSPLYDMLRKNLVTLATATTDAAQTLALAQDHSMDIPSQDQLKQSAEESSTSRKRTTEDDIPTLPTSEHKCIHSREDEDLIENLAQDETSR
Procedure: (§1) Time Resolved Fluorescence Energy Transfer (TR-FRET) Assay
(§2) The inhibition of p53-MDM2 and p53-MDM4 interactions is measured by time resolved fluorescence energy transfer (TR-FRET). Fluorescence energy transfer (or Foerster resonance energy transfer) describes an energy transfer between donor and acceptor fluorescent molecules. For this assay, human MDM2 protein (amino acids 2-188) and human MDM4 protein (amino acids 2-185), tagged with a C-terminal biotin moiety, are used in combination with a Europium labeled streptavidin (Perkin Elmer, Inc., Waltham, Mass., USA) serving as the donor fluorophore. The p53 derived, Cy5 labeled peptide Cy5-TFSDLWKLL (p53 aa18-26) is the energy acceptor. Upon excitation of the donor molecule at 340 nm, binding interaction between MDM2 or MDM4 and the p53 peptide induces energy transfer and enhanced response at the acceptor emission wavelength at 665 nm. Disruption of the formation of the p53-MDM2 or p53-MDM4 complex due to an inhibitor molecule binding to the p53 binding site of MDM2 or MDM4 results in increased donor emission at 620 nm. The ratiometric FRET assay readout is calculated from the raw data of the two distinct fluorescence signals measured in time resolved mode (fluorescence 665 nm/fluorescence 620 nm×1000).
(§3) After addition of 1.25 nM MDM2-biotinylated or 2.5 nM MDM4-biotinylated (internal preparations, both MDM2 and MDM4 are biotinylated at the C-terminal of the peptide construct), and 0.625 nM Europium labeled streptavidin (Perkin Elmer), the solution is pre-incubated for 15 minutes at room temperature, then 10 nM Cy5-p53 peptide (internal preparation, the Cy5 dye is directly bound to the N-terminal part of p53 peptide construct) is added before an incubation at room temperature for 15 minutes prior to reading the plate. For measurement of samples, a Victor II microplate reader (Perkin Elmer) is used with the following settings: Excitation 340 nm, Emission Donor 620 nm and Emission Acceptor 665 nm. IC50 values are calculated by curve fitting using XLfit. If not specified, reagents are purchased from Sigma-Aldrich Chemie GmBH, Buchs, Switzerland.
(§4) This assay was used to evaluate compounds displaying inhibition of p53-MDM2 interaction and p53-MDM4 interaction at IC50s of 0.005 to 50 μM (p53-MDM2 Assay 1 and p53-MDM4 Assay 1, respectively). For selected compounds displaying IC50s between […] on MDM2, a slightly modified assay is used with the following adaptations: 0.1 nM MDM2, 0.1 nM Europium labeled streptavidin and Tecan genios Pro is used as a microplate reader for the fluorescence measurements (p53-MDM2 Assay 2).

[2] = target: T2, p53-MDM2 interaction (human MDM2 protein, amino acids 2-188) (Homo sapiens, UniProt Q00987); assay: p53-MDM2 Assay 1: TR-FRET inhibition of p53-MDM2 interaction; settings: 1.25 nM MDM2-biotinylated, 10 nM Cy5-p53 peptide
T2 construct: human MDM2 protein (amino acids 2-188); made in house
Procedure: as §1, §2, §3, §4

[3] = target: T2, p53-MDM2 interaction (human MDM2 protein, amino acids 2-188); assay: p53-MDM2 Assay 2: slightly modified TR-FRET assay; settings: 0.1 nM MDM2, 0.1 nM Europium labeled streptavidin, Tecan genios Pro reader
Procedure: as §1, §2, §3, §4

T2 sequence (Q00987 2-188): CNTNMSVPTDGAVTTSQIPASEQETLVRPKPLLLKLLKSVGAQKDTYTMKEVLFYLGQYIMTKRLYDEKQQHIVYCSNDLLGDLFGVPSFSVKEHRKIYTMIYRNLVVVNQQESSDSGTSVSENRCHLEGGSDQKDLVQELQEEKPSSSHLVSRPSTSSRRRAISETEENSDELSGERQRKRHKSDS

**Q.** For Cc1cc(Cl)ccc1C1c2c(nn(Cc3ccccc3)c2C(C)C)NC(=O)N1c1cccc(Cl)c1F (stereo not shown) [Example 1, 2-Benzyl-5-(3-chloro-2-fluoro-phenyl)-4-(4-chloro-2-methyl-phenyl)-3-isopropyl-2,4,5,7-tetrahydro-pyrazolo[3,4-d]pyrimidin-6-one], which IC50 [1] is on record?
**A.** The IC50 was 34.7 µM.

**Q.** And the IC50 [2]?
**A.** The IC50 was 1.8 nM.

**Q.** For Cc1cc(Cl)ccc1[C@H]1c2c(nn(Cc3ccccc3)c2C(C)C)NC(=O)N1c1cccc(Cl)c1F [Example 2, (S)-2-Benzyl-5-(3-chloro-2-fluorophenyl)-4-(4-chloro-2-methylphenyl)-3-isopropyl-4,5-dihydro-2H-pyrazolo[3,4-d]pyrimidin-6(7H)-one], which IC50 [1] is on record?
**A.** The IC50 was 18.5 µM.

**Q.** And the IC50 [2]?
**A.** The IC50 was 1.8 nM.

**Q.** For Cc1cc(Cl)ccc1[C@@H]1c2c(nn(Cc3ccccc3)c2C(C)C)NC(=O)N1c1cccc(Cl)c1F [Example 3, (R)-2-Benzyl-5-(3-chloro-2-fluorophenyl)-4-(4-chloro-2-methylphenyl)-3-isopropyl-4,5-dihydro-2H-pyrazolo[3,4-d]pyrimidin-6(7H)-one], which IC50 [1] is on record?
**A.** The IC50 was 39.7 µM.

**Q.** What about the IC50 [2] of the same compound?
**A.** The IC50 was 146 nM.

**Q.** How did the IC50 [1] turn out when COc1ccccc1-n1nc2c(c1C(C)C)[C@@H](c1ccc(Cl)cc1C)N(c1cccc(Cl)c1F)C(=O)N2 [Example 7, (R)-5-(3-Chloro-2-fluoro-phenyl)-4-(4-chloro-2-methyl-phenyl)-3-isopropyl-2-(2-methoxy-phenyl)-2,4,5,7-tetrahydro-pyrazolo[3,4-d]pyrimidin-6-one] was run?
**A.** The IC50 was 19.1 µM.

**Q.** And the IC50 [2]?
**A.** The IC50 was 62.2 nM.

**Q.** For Cc1cc(Cl)ccc1C1c2c(nn(CCN(C)C)c2C(C)C)NC(=O)N1c1cccc(Cl)c1F (stereo not shown) [Example 9, 5-(3-chloro-2-fluoro-phenyl)-4-(4-chloro-2-methyl-phenyl)-2-(2-dimethylamino-ethyl)-3-isopropyl-2,4,5,7-tetrahydro-pyrazolo[3,4-d]pyrimidin-6-one], which IC50 [1] is on record?
**A.** The IC50 was 41.7 µM.

**Q.** What about the IC50 [2] of the same compound?
**A.** Its IC50 is 16.7 nM.

**Q.** Which results are given for COc1ccccc1-n1nc2c(c1C(C)C)C(c1ccc(Cl)cc1C)N(c1cc(Cl)ccc1OCCN(C)C)C(=O)N2 (stereo not shown) [Example 12, 5-[5-Chloro-2-(2-dimethylamino-ethoxy)-phenyl]-4-(4-chloro-2-methyl-phenyl)-3-isopropyl-2-(2-methoxy-phenyl)-2,4,5,7-tetrahydro-pyrazolo[3,4-d]pyrimidin-6-one]?
**A.** IC50 [1]: 2.36 µM; IC50 [2]: 2.5 nM

**Q.** Which IC50 [1] does the source give for COCCn1cc(N2C(=O)Nc3nn(-c4ccccc4OC)c(C(C)C)c3C2c2ccc(Cl)cc2)cc(Cl)c1=O (stereo not shown) [Example 16, 5-[5-Chloro-1-(2-methoxy-ethyl)-6-oxo-1,6-dihydro-pyridin-3-yl]-4-(4-chloro-phenyl)-3-isopropyl-2-(2-methoxy-phenyl)-2,4,5,7-tetrahydro-pyrazolo[3,4-d]pyrimidin-6-one] here?
**A.** The IC50 was 8.57 µM.

**Q.** What about the IC50 [2] of the same compound?
**A.** The IC50 was 5.6 nM.

**Q.** With COc1ccccc1-n1nc2c(c1C(C)C)C(c1ccc(Cl)cc1)N(c1cc(Cl)ccc1OCCN(C)C)C(=O)N2 (stereo not shown) [Example 17, 5-(5-Chloro-2-(3-(dimethylamino)ethoxy)phenyl)-4-(4-chlorophenyl)-3-isopropyl-2-(2-methoxyphenyl)-4,5-dihydro-2H-pyrazolo[3,4-d]pyrimidin-6(7H)-one] as the compound, how does the IC50 [1] read?
**A.** Its IC50 is 11.6 µM.

**Q.** What about the IC50 [2] of the same compound?
**A.** The IC50 was 6.6 nM.

**Q.** Which IC50 [1] does the source give for COc1ccccc1-n1nc2c(c1C(C)C)C(c1ccc(Cl)cc1)N(c1ccc(=O)n(C)c1)C(=O)N2 (stereo not shown) [Example 20, 4-(4-Chloro-phenyl)-3-isopropyl-2-(2-methoxy-phenyl)-5-(1-methyl-6-oxo-1,6-dihydro-pyridin-3-yl)-2,4,5,7-tetrahydro-pyrazolo[3,4-d]pyrimidin-6-one] here?
**A.** The IC50 was 4.73 µM.

**Q.** What about the IC50 [2] of the same compound?
**A.** Its IC50 is 4.8 nM.

**Q.** For COc1ccc(C#N)cc1-n1nc2c(c1C(C)C)C(c1ccc(Cl)cc1C)N(c1cc(Cl)ccc1C)C(=O)N2 (stereo not shown) [Example 23, 3-(4-(4-Chloro-2-methylphenyl)-5-(5-chloro-2-methylphenyl)-3-isopropyl-6-oxo-4,5,6,7-tetrahydro-2H-pyrazolo[3,4-d]pyrimidin-2-yl)-4-methoxybenzonitrile], which IC50 [3] is on record?
**A.** The IC50 was 0.15 nM.

**Q.** How did the IC50 [3] turn out when COc1ccc(C#N)cc1-n1nc2c(c1C(C)C)C(c1ccc(Cl)cc1C)N(c1cc(Cl)c(=O)n(C)c1)C(=O)N2 (stereo not shown) [Example 24, 3-(5-(5-Chloro-1-methyl-6-oxo-1,6-dihydropyridin-3-yl)-4-(4-chloro-2-methylphenyl)-3-isopropyl-6-oxo-4,5,6,7-tetrahydro-2H-pyrazolo[3,4-d]pyrimidin-2-yl)-4-methoxybenzonitrile] was run?
**A.** The IC50 was 0.14 nM.

**Q.** How did the IC50 [3] turn out when COc1ccc(CN)cc1-n1nc2c(c1C(C)C)C(c1ccc(Cl)cc1C)N(c1cc(Cl)ccc1C)C(=O)N2 (stereo not shown) [Example 25, 2-(5-(Aminomethyl)-2-methoxyphenyl)-4-(4-chloro-2-methylphenyl)-5-(5-chloro-2-methylphenyl)-3-isopropyl-4,5-dihydro-2H-pyrazolo[3,4-d]pyrimidin-6(7H)-one] was run?
**A.** Its IC50 is 0.12 nM.

**Q.** How did the IC50 [3] turn out when COc1ccc(CNC(C)=O)cc1-n1nc2c(c1C(C)C)C(c1ccc(Cl)cc1C)N(c1cc(Cl)ccc1C)C(=O)N2 (stereo not shown) [Example 26, N-(3-(4-(4-Chloro-2-methylphenyl)-5-(5-chloro-2-methylphenyl)-3-isopropyl-6-oxo-4,5,6,7-tetrahydro-2H-pyrazolo[3,4-d]pyrimidin-2-yl)-4-methoxybenzyl)acetamide] was run?
**A.** The IC50 was 0.13 nM.

**Q.** How did the IC50 [3] turn out when COc1ccc(CNC=O)cc1-n1nc2c(c1C(C)C)C(c1ccc(Cl)cc1C)N(c1cc(Cl)ccc1C)C(=O)N2 (stereo not shown) [Example 27, N-(3-(4-(4-Chloro-2-methylphenyl)-5-(5-chloro-2-methylphenyl)-3-isopropyl-6-oxo-4,5,6,7-tetrahydro-2H-pyrazolo[3,4-d]pyrimidin-2-yl)-4-methoxybenzyl)formamide] was run?
**A.** The IC50 was 0.11 nM.

**Q.** With COc1ccc(C(N)=O)cc1-n1nc2c(c1C(C)C)C(c1ccc(Cl)cc1C)N(c1cc(Cl)ccc1C)C(=O)N2 (stereo not shown) [Example 28, 3-(4-(4-Chloro-2-methylphenyl)-5-(5-chloro-2-methylphenyl)-3-isopropyl-6-oxo-4,5,6,7-tetrahydro-2H-pyrazolo[3,4-d]pyrimidin-2-yl)-4-methoxybenzamide] as the compound, how does the IC50 [3] read?
**A.** The IC50 was 0.24 nM.

**Q.** How did the IC50 [3] turn out when COc1ccc(CN)cc1-n1nc2c(c1C(C)C)C(c1ccc(Cl)cc1C)N(c1cc(Cl)c(=O)n(C)c1)C(=O)N2 (stereo not shown) [Example 29, 2-(5-(Aminomethyl)-2-methoxyphenyl)-5-(5-chloro-1-methyl-6-oxo-1,6-dihydropyridin-3-yl)-4-(4-chloro-2-methylphenyl)-3-isopropyl-4,5-dihydro-2H-pyrazolo[3,4-d]pyrimidin-6(7H)-one] was run?
**A.** Its IC50 is 0.18 nM.

**Q.** With COc1ccc(CNC(C)=O)cc1-n1nc2c(c1C(C)C)C(c1ccc(Cl)cc1C)N(c1cc(Cl)c(=O)n(C)c1)C(=O)N2 (stereo not shown) [Example 30, N-(3-(5-(5-Chloro-1-methyl-6-oxo-1,6-dihydropyridin-3-yl)-4-(4-chloro-2-methylphenyl)-3-isopropyl-6-oxo-4,5,6,7-tetrahydro-2H-pyrazolo[3,4-d]pyrimidin-2-yl)-4-methoxybenzyl)acetamide] as the compound, how does the IC50 [3] read?
**A.** Its IC50 is 0.21 nM.

**Q.** Which IC50 [3] does the source give for COc1ncc(-n2nc3c(c2C(C)C)C(c2ccc(Cl)cc2C)N(c2cc(Cl)c(=O)n(C)c2)C(=O)N3)c(OC)n1 (stereo not shown) [Example 31, 5-(5-Chloro-1-methyl-6-oxo-1,6-dihydropyridin-3-yl)-4-(4-chloro-2-methylphenyl)-2-(2,4-dimethoxypyrimidin-5-yl)-3-isopropyl-4,5-dihydro-2H-pyrazolo[3,4-d]pyrimidin-6(7H)-one] here?
**A.** The IC50 was 0.29 nM.

**Q.** For COc1ncc(-n2nc3c(c2C(C)C)C(c2ccc(Cl)cc2C)N(c2cc(Cl)cn(C)c2=O)C(=O)N3)c(OC)n1 (stereo not shown) [Example 32, 5-(5-Chloro-1-methyl-2-oxo-1,2-dihydropyridin-3-yl)-4-(4-chloro-2-methylphenyl)-2-(2,4-dimethoxypyrimidin-5-yl)-3-isopropyl-4,5-dihydro-2H-pyrazolo[3,4-d]pyrimidin-6(7H)-one], which IC50 [3] is on record?
**A.** The IC50 was 0.21 nM.
